Results reported in patent US6190848A, “Color photographic element containing ballasted triazole derivative and inhibitor releasing coupler” (priority 1999, dated 2001).

How the values were obtained:
[1] = Multilayer film: interimage (density change in receiver record) and relative green or blue sensitivity; details: for Interimage B → G / Relative Green Sensitivity: IDIR-2 in blue layers
Excerpt: Comparative examples are designated ML-C; inventive examples are designated ML-I.
Experimental Sample ML-C-0:
Layer 1 (Antihalation layer): black colloidal silver sol at 0.140; gelatin at 2.15; OxDS-1 at 0.108, DYE-1 at 0.049; DYE-2 at 0.017 and DYE-3 at 0.014.
Layer 2 (Slow cyan layer): a blend of three red sensitized (all with a mixture of RSD-1 and RSD-2) silver iodobromide emulsions: (i) a large sized tabular grain emulsion (1.3×0.118, 4.1 mole % I) at 0.522 (ii) a smaller tabular emulsion (0.85×0.115, 4.1 mole % I) at 0.337 and (iii) a very small tabular grain emulsion (0.55×0.115, 1.5 mole % I) at 0.559; gelatin at 2.85; cyan dye-forming coupler C-1 at 0.452; CDIR-1 at 0.043; bleach accelerator releasing coupler B-1 at 0.054 and anti-foggant 4-hydroxy-6-methyl-1,3,3a,7-tetraazaindene at 0.016.
Layer 3 (Fast cyan layer): a red-sensitized (same as above) tabular silver iodobromide emulsion (2.2×0.128, 4.1 mole % I) at 0.086; cyan coupler C-1 at 0.081; CDIR-1 at 0.034; MC-1 at 0.043; gelatin at 1.72 and anti-foggant 4-hydroxy-6-methyl-1,3,3a,7-tetraazaindene at 0.010.
Layer 4 (Interlayer): gelatin at 1.29.
Layer 5 (Slow magenta layer): a blend of two green sensitized (both with a mixture of GSD-1 and GSD-2) silver iodobromide emulsions: (i) 0.54×0.091, 4.1 mole % iodide at 0.194 and (ii) 0.52×0.085, 1.5 mole % iodide at 0.559; magenta dye forming coupler M-1 at 0.24, gelatin at 1.08 and anti-foggant 4-hydroxy-6-methyl-1,3,3a,7-tetraazaindene at 0.005.
Layer 6 (Mid magenta layer): a blend of two green sensitized (same as above) tabular silver iodobromide emulsions (i) 1.3×0.113, 4.1 mole % I at 0.430 and (ii) […], 4.1 mole % I at 0.172; magenta dye forming coupler M-1 at 0.065; MC-2 at 0.015; IDIR-5 at 0.016; gelatin at 2.12 and anti-foggant 4-hydroxy-6-methyl-1,3,3a,7-tetraazaindene at 0.003.
Layer 7 (Fast magenta layer): a green sensitized tabular silver iodobromide (1.8×0.127, 4.1 mole % I) emulsion at 0.689; gelatin at 1.61; magenta dye forming coupler M-1 at 0.043; MC-2 at 0.054 and CDIR-2 at 0.003.
Layer 8 (Yellow filter layer): gelatin at 0.86; Carey-Lea silver at 0.043 and OxDS-2 at 0.054.
Layer 9 (Slow yellow layer): an equal blend of three blue sensitized (all with YSD-1) silver iodobromide emulsions (i) 0.50×0.085, 1.5 mole % I (ii) 0.60 diameter 3-D, 3% mole I and (iii) 0.68 diameter 3-D, 3 mole % I at a total of 0.430; yellow dye forming coupler Y-2 at 0.699; yellow dye forming coupler Y-3 at 0.215; IDIR-2 at 0.086; C-1 at 0.097 and gelatin at 2.066.
Layer 10 (Fast yellow layer): two blue sensitized (with YSD-1) silver iodobromide emulsions (i) 3.1×0.137 tabular, 4.1 mole % I at 0.396 (ii) 0.95 diameter 3-D, 7.1 mole % I at 0.47; Y-2 at 0.131; Y-3 at 0.215; IDIR-2 at 0.075; C-1 at 0.011; B-1 at 0.008 and gelatin at 1.08.
Layer 11 (Protective overcoat and UV filter layer): gelatin at 1.61; silver bromide Lippman emulsion at 0.215; UV-1 and UV-2 (1:1 ratio) at a total of 0.023 and bis(vinylsulfonyl)methane hardener at 1.6% of total gelatin weight.
Surfactants, coating aids, emulsion addenda. sesquestrants, lubricants, matte and tinting dyes were added to the appropriate layers as is common in the art. The following describes the composition of each particular experimental coating based on ML-C-0:
ML-C-1: Like ML-C-0, but IDIR-6 replaces IDIR-2 in layers 9 and 10 at equimolar levels.
ML-C-2: Like ML-C-0, but IDIR-1 replaces IDIR-5 in layer 6 at 0.032.
ML-I-0: Like ML-C-0, but IEM-A added at 3×10^-4 in layer 5, 2×10^-4 in layer 6 and 2.9×10^-4 in layer 7.
ML-I-1: Like ML-C-0, but IEM-A added at 3×10^-3 in layer 5, 2×10^-3 in layer 6 and 2.9×10^-3 in layer 7.
ML-I-2: Like ML-C-0, but IEM-A added at 3×10^-2 in layer 5, 2×10^-2 in layer 6 and 2.9×10^-2 in layer 7.
ML-I-3: Like ML-C-0, but IEM-A added at 1.6×10^-3 in layers 9 and 10.
ML-I-4: Like ML-C-1, but IEM-A added at 1.6×10^-3 in layers 9 and 10.
ML-I-5: Like ML-C-2, but IEM-A added at 1.6×10^-3 in layers 9 and 10. […]

[2] = Bilayer photographic element: interimage (Cg/Cb+g) and relative green sensitivity
Procedure: Bilayer photographic elements were prepared by coating the following layers on a cellulose triacetate film support (coverages are in g/m^2). Unless otherwise noted, all comparative and inventive compounds were dispersed in twice their own weight of N,N-dibutyllauramide:
Layer 1 (Antihalation Layer): black colloidal elemental silver at 0.34 and gelatin at2.41.
Layer 2 (Receiver Layer): gelatin at 2.79, CDIR-2 at 0.03, coupler M-1 (dispersed as described previously) added at 0.045, comparison material (CIEM) or IEM added at 7.2×10^-3 mmol/m^2 (this corresponds to 1.67 mmol per mole silver as AgBr or 0.96 mmol per mole of silver) dispersed in twice its own weight of N,N-dibutyllauramide and 0.81 green sensitized AgIBr tabular emulsion.
Layer 3 (Interlayer): gelatin at 0.64, ILS-1 at 0.11 and FD-1 at 0.11.
Layer 4 (Causer Layer): gelatin at 2.79, coupler Y-1 at 0.91, 0.79 blue sensitized AgIBr tabular emulsion and the DIR at 0.11 mmol/m^2.
Layer 5 (Overcoat): gelatin at 2.79 and 0.02 bis-vinylsulfonemethylether.
Samples of each element were given a stepped exposure of either green light only or blue and green light combined and processed in the KODAK FLEXICOLOR (C-41) process as described in British Journal of Photography Annual, 1988, pp196-198. Contrast of the elements was determined using the maximum slope between any two density points. In this test, the ratio of the contrast of the green only exposure to the contrast of the green of a blue and green exposure (Cg /Cb+g) is a measure of the interimage. A higher ratio means more inhibition originating from the blue and affecting the green record.
Another set of bilayer experiments were generated in a similar manner to show the effect of IEM laydown (as mmol per mol silver) and DIR variations.

[3] = Table IV ML-I-0: 0.14 mmol IEM-A/mol silver in layers 5, 6, 7
[4] = Table IV ML-I-1: 1.4 mmol IEM-A/mol silver in layers 5, 6, 7
[5] = Table IV ML-I-2: 14 mmol IEM-A/mol silver in layers 5, 6, 7
[6] = Table V ML-I-3: IEM in blue layer, IDIR-2 in blue, IDIR-5 in green
[7] = Table V ML-I-4: IEM in blue layer, IDIR-6 in blue, IDIR-5 in green
[8] = Table V ML-I-5: IEM in blue layer, IDIR-2 in blue, IDIR-1 in green
[9] = Table V ML-I-6: IEM in blue layer, IDIR-6 in blue, IDIR-1 in green
[10] = Table III BL-23: laydown 0.96 mmol per mol silver, IDIR-2 in blue
[11] = Table III BL-24: laydown 9.6 mmol per mol silver, IDIR-2 in blue
[12] = Table III BL-26: laydown 0.96 mmol per mol silver, IDIR-6 in blue
[13] = Table III BL-27: laydown 9.6 mmol per mol silver, IDIR-6 in blue

## CCC(C)(C)c1ccc(OCCCCNC(=O)c2ccc3[nH]nnc3c2)c(C(C)(C)CC)c1 [IEM-A]
[1]; [3]
  Interimage B → G: -0.041
  Relative Green Sensitivity: 0.99
[1]; [4]
  Interimage B → G: -0.100
  Relative Green Sensitivity: 0.96
[1]; [5]
  Interimage B → G: -0.097
  Relative Green Sensitivity: 0.82
[1]; [6]
  Interimage G → B: -0.154
  Relative Blue Sensitivity: 0.98
[1]; [7]
  Interimage G → B: -0.155
  Relative Blue Sensitivity: 0.97
[1]; [8]
  Interimage G → B: -0.202
  Relative Blue Sensitivity: 0.98
[1]; [9]
  Interimage G → B: -0.243
  Relative Blue Sensitivity: 0.96
[2]; Table II, IDIR-2 in blue layer, IEM or CIEM at 7.2×10^-3 mmol/m^2
  Cg /Cb+g (interimage ratio): 1.65
[2]; [10]
  Cg /Cb+g (interimage ratio): 1.95
  Relative Green Sensitivity: 0.95
[2]; [11]
  Cg /Cb+g (interimage ratio): 1.62
  Relative Green Sensitivity: 0.82
[2]; [12]
  Cg /Cb+g (interimage ratio): 1.33
  Relative Green Sensitivity: 0.96
[2]; [13]
  Cg /Cb+g (interimage ratio): 1.59
  Relative Green Sensitivity: 0.89
